Assay results as given in patent US20190083420A1, “METHODS OF USING (2R, 6R)-HYDROXYN[…] (2S, 6S)-HYDROXYN[…] THE TREATMENT OF DEPRESSION, ANXIETY, ANHEDONIA, FATIGUE, SUICIDAL IDEATION, AND POST TRAUMATIC STRESS DISORDERS” (The Uinited States of America, as represented by the …, priority 2016, published 2019).
“Also recorded” adds a separate entry of the source.

Columns and labels:
Format in all cases: in vivo
Male C57BL/6J mice = experiment: Chronic social defeat stress and social interaction/avoidance test; settings: for locomotor activity and total compartmental crosses in the social interaction test: following chronic social defeat stress; for reversal of social interaction deficits / social avoidance induced by chronic social defeat stress: single i.p. injection, re-test 24 hours following treatment
Experimental: Male C57BL/6J mice underwent a 10-day chronic social defeat stress paradigm. Briefly, experimental mice were introduced to the home cage (43 cm length×11 cm width×20 cm height) of a resident aggressive retired CD-1 breeder, prescreened for aggressive behaviors, for 10 min. Following this physical attack phase, mice were transferred and housed in the opposite side of the resident's cage divided by a Plexiglas perforated divider, in order to maintain continuous sensory contact. This process was repeated for 10 days. Experimental mice were introduced to a novel aggressive CD-1 mouse each day. On day 11, test mice were screened for susceptibility in a social interaction/avoidance choice test. The social interaction apparatus consisted of a rectangular three-chambered box (mouse conditioned-place preference chamber; Stoelting Co., Wood Dale, Ill., USA), see FIG. 7b) comprised of two equal sized end-chambers and a smaller central chamber. The social interaction/avoidance choice test consisted of two 5-min phases. During the habituation phase, mice explored the empty apparatus. During the test phase, two small wire cages (Galaxy Cup, Spectrum Diversified Designs, Inc., Streetsboro, Ohio, USA), one containing a “stranger” CD-1 mouse and the other one empty, were placed in the far corners of each chamber. The time spent interacting (nose within close proximity of the cage) with the “stranger” mouse versus the empty cage was analysed using TopScan video tracking software (CleverSys, Reston, Va.). Locomotor activity (total distance moved over 5 min) and number of total crosses into and out of the central chamber were also measured. The social interaction ratio was calculated by dividing the time spent interacting with the “stranger” by the time spent with the empty cage. Mice having a social interaction ratio higher than 1.0 were considered resilient and mice with a social interaction ratio lower than 1.0 were considered susceptible. On day 13 resilient and susceptible mice received an i.p. injection of either saline, (R,S)-KET (20 mg/kg; chosen based upon dose previously effective in C57BL/6J mice^31), MK-801 (0.1 mg/kg) or (2R,6R)-HNK (20 mg/kg). Mice were re-tested for social interaction/avoidance on […] (24 hours following treatment).

mice [1] = experiment: Pre-pulse inhibition of acoustic startle
Text: Mice were individually tested in acoustic startle boxes (SR-LAB, San Diego Instruments). Following drug administration, mice were placed in the startle chamber for a 30-min habituation period. The experiment started with a further 5-min adaptation period during which the mice were exposed to a constant background noise (67 dB), followed by five initial startle stimuli (120 dB, 40 msec duration each). Subsequently, animals were exposed to five different trial types: pulse alone trials (120 dB, 40 msec duration), three pre-pulse trials of 76, 81 and 86 dB of white noise bursts (20 msec duration) preceding a 120 dB pulse by 100 msec, and background (67 dB) no-stimuli trials. Each of these trials was randomly presented five times. Ketamine's dose selection (30 mg/kg) was based on a dose-response study we performed in a previous study. The percentage pre-pulse inhibition (% PPI) was calculated using the following formula: [(magnitude on pulse alone trial—magnitude on pre-pulse+pulse trial)/magnitude on pulse alone trial]×100.

mice [2] = experiment: Quantitative EEG, cortical oscillation power; settings: for cortical gamma power: acute; for cortical gamma power / cortical alpha, beta, delta and theta oscillations: after i.p. 10 mg/kg
Experimental: EEG experiments were performed according to Raver et al., (Neuropsychopharmacology, 38, 2338-2347 (2013)) with minor modifications. Mice were anesthetized with isoflurane and kept under anesthesia throughout the surgery. An F20-EET radio-telemetric transmitter (Data Sciences International, Minneapolis, Minn.) was implanted subcutaneously and its leads implanted over the dura above the frontal cortex (1.7 mm anterior to bregma) and the cerebellum (6.4 mm posterior to bregma). Animals recovered from surgery for 7 days before recordings.
Mice were singly housed and acclimated to the behavioral room for 24 hours prior to EEG recordings. EEGs were recorded using the Dataquest A.R.T. acquisition system (Data Sciences International) with frontal EEG recordings referenced to the cerebellum. Baseline EEG (10 min) recordings were followed by an i.p. injection of saline, ketamine (10 mg/kg) or (2R,6R)-HNK (10 mg/kg) and 40 min of post-injection recordings.
ECoGs were analyzed using custom-written MATLAB scripts (Version 2012a, Mathworks, Mass.) and the mtspecgramc routine in the Chronux Toolbox (http://chronux.org; Mitra and Bokil, 2008). Oscillation power in each bandwidth (δ=1-3 Hz; θ=4-7 Hz; α=8-12 Hz; β=13-29 Hz; γ=30-80 Hz) was computed in 10 min bins from spectrograms for each animal.

male CD-1 mice = experiment: Forced-swim test (FST); settings: for antidepressant effect in the FST (immobility time): i.p.
Text: Male CD-1 mice (8-10 weeks old, Charles River Laboratories, Mass., USA) were housed in groups of four-five per cage with a constant 12-hour light/dark cycle (lights on/off at 07:00/19:00). Food and water were available ad libitum. Mice acclimatized to the new environment for seven days prior to the start of the experiments. For the whole-cell NMDA current electrophysiological recordings, male Sprague-Dawley rats (housed three per cage; Charles River, Wilmington, Mass.) were used. EPSC recording were done from rats at postnatal day 24-25. All experimental procedures were approved by the University of Maryland, Baltimore Animal Care and Use Committee and were conducted in full accordance with the National Institutes of Health Guide for the Care and Use of Laboratory Animals.
Mice were tested in the FST 1 hour and/or 24 hours post-injection. During the FST, mice were subjected to a 6-min swim session in clear Plexiglass cylinders (30 cm height×20 cm diameter) filled with 15 cm of water (23±1° C.). The FST was performed in normal light conditions (800 Lux). Sessions were recorded using a digital video-camera. Immobility time, defined as passive floating with no additional activity other than that necessary to keep the animal's head above water, was scored for the last 4 min of the 6-min test by a trained observer blind to the treatment.
All drugs were dissolved in 0.9% saline, and administered intraperitoneally (i.p.) in a volume of 7.5 ml/kg of body mass. Corticosterone (4-pregnen-11β, 21-diol-3, 20-dione 21-hemisuccinate; Steraloids, Newport, R.I., USA) was dissolved in tap water. For the electrophysiology recordings, test drugs were diluted in artificial cerebrospinal fluid (AC SF).

[3] = 1- and 24-hours post-injection, times not separated
[4] = 24 hours post-injection (sustained)

Row | Structure (SMILES) | locomotor activity and total compartmental crosses in the social interaction test (Male C57BL/6J mice) | reversal of social interaction deficits / social avoidance induced by chronic social defeat stress (Male C57BL/6J mice) | startle amplitude in the pre-pulse inhibition task (mice [1]; mouse, in vivo) | cortical gamma power (mice [2]; 10 mg/kg) | cortical alpha, beta, delta and theta oscillations (mice [2]) | locomotor home-cage activity during EEG recording (mice [2]; mouse, in vivo) | antidepressant effect in the FST (immobility time) (male CD-1 mice; [3]) | antidepressant effect in the FST (immobility time) (male CD-1 mice; 1 hour post-injection (acute)) | antidepressant effect in the FST (immobility time) (male CD-1 mice; [4]) | antidepressant potency in the FST, female versus male mice (male CD-1 mice; female mice compared to males) | pre-pulse inhibition (sensorimotor gating) (mice [1]; (2R,6R)-HNK up to 375 mg/kg) | cortical alpha, beta, delta and theta oscillations (mice [2]; 10 mg/kg)
1 | CNC1(c2ccccc2Cl)CCCCC1=O (racemic) [ketamine, (R,S)-ketamine, reference compound] | without affecting | reversed social defeat stress-induced social avoidance behaviors | not affected | acutely increases cortical gamma power | Neither (R,S)-KET, nor (2R,6R)-HNK altered | increased locomotor home-cage activity | acute and long-lasting dose-dependent antidepressant effects | antidepressant responses of both ketamine and MK-801 observed acutely | showed sustained effects following 24 hours | greater antidepressant potency of ketamine in female mice | – | –
2 | N[C@@]1(c2ccccc2Cl)CCC[C@@H](O)C1=O [(2R,6R)-HNK, (2R,6R)-2-amino-2-(2-chlorophenyl)-6-hydroxycyclohexanone] | not associated with changes | reversed social interaction deficits | – | acutely increases cortical gamma power | – | – | greater potency and longer-lasting antidepressant-like effects; also recorded: dose-dependent antidepressant-like effects; also recorded: dose-dependent antidepressant action | – | more potent antidepressant effects | – | did not induce 4e, pre-pulse inhibition deficits; also recorded: did not affect sensorimotor gating; also recorded: did not affect pre-pulse inhibition | without altering alpha, beta, delta or theta oscillations; also recorded: Neither (R,S)-KET, nor (2R,6R)-HNK altered
